In US6369109B1, “Betulinic acid and derivatives thereof useful for the treatment of neuroectodermal tumor” (Deutsches Krebsforschungszentrum Stiftung des Offentlichen …, priority 1998, dated 2002):
Residues, ends and D or L forms follow the SMILES beside them. *: point of attachment. Cbz = O=C(OCc1ccccc1)*; CH2F = FC*

Assays:
[1] = test system: FLICE, CPP32 and PARP in SH-EP neuroblastoma cells; test: Western blot of FLICE (caspase-8), CPP32 (caspase-3) and PARP cleavage; assay type: cell-based, human
Description: Cells were lysed for 30 min at 4° C. in PBS with 0.5% Triton X (Serva, Heidelberg, Germany) and 1 mM phenylmethylsulfonyl fluoride (Sigma, Deisenhofen, Germany) followed by high-speed centrifugation. Membrane proteins were eluted in buffer containing 0.1 M glycine. PH 3.0 and 1.5 M Tris, pH 8.8. Protein concentration was assayed using bicinchoninic acid (Pierce Chemical Co., Rockford, Ill.). Forty μg of protein per lane were separated by 12% SDS-PAGE and electroblotted onto nitrocellulose (Amersham, Braunschweig, Germany). Equal protein loading was controlled by Ponceau red staining of membranes. After blocking for 1 h in PBS supplemented with 2% BSA (Sigma) and 0.1% Tween 20 (Sigma), immunodetection of FLICE, CPP32, PARP, Bax, Bcl-x, Bcl-2, and p53 protein was done using mouse anti-FLICE monoclonal antibody C15 (1:5 dilution of hybridoma supernatant), mouse anti-CPP32 monoclonal antibody (1:1000, Transduction Laboratories, Lexington, KY), rabbit anti-PARP polyclonal antibody (1:10000, Enzyme Systems Products), rabbit anti-Bax polyclonal antibody (1:500, Calbiochem, Bad Soden, Germany), rabbit anti-Bcl-x polyclonal antibody (1:1000, Santa Cruz Biotechnology, Santa Cruz, Calif.), mouse anti-p53 monoclonal antibody (1:10000, Transduction Laboratories), and goat anti-mouse 1gG or goat antirabbit IgG (1:5000, Santa Cruz Biotechnology), ECL (Amersham) was used for detection.
FIG. 2B and FIG. 2C show the cleavage of FLICE, CPP32 and PARP. SH-EP neuroblastoma cells were treated with 10 μg/ml betulinic acid for indicated times or with 0.5 μg/ml doxorubicin for 24 h. Forty μg of protein per lane, isolated from cell lysates, were separated by 12% SDS-PAGE, Immunodetection of FLICE (FIG. 2B). CPP32 (FIG. 2C), and PARP (C) proteins was performed by mouse anti-FLICE monoclonal antibody, mouse anti-CPP32 monoclonal antibody, or rabbit anti-PARP polyclonal antibody and ECL.
SH-EP neuroblastoma cells were treated with 10 μg/ml betulinic acid for 24 h with or without 60 μM zVAD-frnk. Western blot analysis for FLICE and PARP cleavage was performed as described for FIG. 2B.
(§1) Cells were lysed for 30 mm at 4° C. in PBS with 0.5% Triton X (Serva, Heidelberg, Germany) and 1 mM PMSF (Sigma, Deisenhofen, Germany) followed by high-speed centrifugation. Membrane proteins were eluted in buffer containing 0.1 M glycine, pH 3.0 and 1.5 M Tris, pH 8.8. Protein concentration was assayed using bicinchoninic acid (Pierce, Rockford, Ill.). 40 μg protein per lane was separated by 12% or 15% SDS-PAGE and electroblotted onto nitrocellulose (Amersham, Braunschweig, Germany). Equal protein loading was controlled by Ponceau red staining of membranes. […]
For determination of mitochondrial membrane potential, cells (5×10^5/ml) were incubated with 3,3′-dihexyloxacarbocyanide iodide (DiOC6(3), 40 nM, Molecular Probes, Inc., Eugene, Oreg.) for 15 min at 37° C. and analyzed on a flow cytometer (FACScan) (Zamzarni et al., 1996 J. Exp. Med. 183:1533-44). […]

[2] = test system: cytochrome c in SHEP cells; test: Drug-induced release of cyt c from mitochondria in cells (Western blot); assay type: cell-based, human; settings: 0.5 μg/ml Doxo or 10 μg/ml Bet A; FIG. 16A
Description: as §1
For isolation of mitochondria, cells (3×10^8 per sample) were washed twice with ice-cold PBS and resuspended with five volumes of buffer A (50 mM Tris buffer, 1 mM EGTA, 5 mM 2-mercaptoethanol, 0.2% BSA, 10 mM KH2PO4, pH 7.6, 0.4 M sucrose) and allowed to swell on ice for 20 min. […] The protein concentration of mitochondria or cytosolic extracts was determined by the Bradford method. […]

[3] = 0.5 μg/ml Doxo or 10 μg/ml Bet A, 24 h, FIG. 14A

SMILES	caspase-3 (and PARP) processing in Bcl-2 or Bcl-XL overexpressing cells [1, 3]	caspase-8 processing in Bcl-2 or Bcl-XL overexpressing cells [1, 3]	caspase cleavage in cells sorted into ΔΨm^high and ΔΨm^low ([1]; 0.5 μg/ml Doxorubicin or 10 μg/ml Bet A, 18 h, FIG. 14B-2)	cleavage of FLICE ([1]; 10 μg/ml betulinic acid, 0.5 μg/ml doxorubicin 24 h, FIG. 2B)	mitochondrial cytochrome c levels after stimulation [2]	effect of inhibitor on betulinic acid-induced cleavage of FLICE and PARP ([1]; 60 μM zVAD-fmk, 10 μg/ml betulinic acid 24 h, FIG. 2E)
COc1cccc2c1C(=O)c1c(O)c3c(c(O)c1C2=O)C[C@@](O)(C(=O)CO)C[C@@H]3O[C@H]1C[C@H](N)[C@H](O)[C@H](C)O1 [doxorubicin]	inhibited in Bcl-2 and Bcl-XL transfected cells	cleaved into p43 and p41 intermediates and the active p18 subunit, regardless of Bcl-2 or Bcl-XL overexpression	CD95-L induction and cleavage of caspase-8 was found in both ΔΨm^high and ΔΨm^low cells	stimulated FLICE cleavage	mitochondrial cytochrome c levels declined	–
COC(=O)C[C@H](NC(=O)[C@H](C)NC(=O)[C@@H](NC(=O)OCc1ccccc1)C(C)C)C(=O)CF [zVAD-fmk, benzyloxycarbonyl-Val-Ala-Asp-Fluoromethylketone] (Cbz-Val-Ala-Asp(OMe)-CH2F)	–	–	–	–	–	inhibited cleavage of FLICE and PARP
